Assay results published in patent US4033721A, “Analysis of gentian violet residue in tissue” (priority 1976, dated 1977).
Values joined by “and” are separate entries in the source; they are usually repeats but may differ in a detail not shown here. Equal entries are not always repeated.

Assay: Residual 14C-gentian violet in tissues of cockerels after repeated oral administration (Example 26)
Details: for 14C dpm/Organ / 14C dpm/gram / ug/gram (ppm) in organ: individual bird; for Mean tissue residue: oral; for Mean tissue residue, mean of two values without the sport: 2.5 mg/kg

CN(C)c1ccc(C(=C2C=CC(=[N+](C)C)C=C2)c2ccc(N(C)C)cc2)cc1 [^14 C-gentian violet]
Residue 72 hrs. post-dose (breast muscle): 0.012 ppm | Residue 72 hrs. post-dose (gizzard muscle): 0.002 ppm | Residue 72 hrs. post-dose (heart muscle): 0.007 ppm | 14C dpm/Organ (kidneys, 1X dose, 4 hours): 2,863 dpm/Organ and 4,271 dpm/Organ and 2,272 dpm/Organ | 14C dpm/gram (kidneys, 1X dose, 4 hours): 1,184 dpm/gram and 1,634 dpm/gram and 1,269 dpm/gram | ug/gram (ppm) in organ (kidneys, 1X dose, 4 hours, 240 min): 0.089 ppm and 0.123 ppm and 0.095 ppm | 14C dpm/Organ (kidneys, 1X dose, 12 hours): 1,746 dpm/Organ and 1,696 dpm/Organ and 3,452 dpm/Organ | 14C dpm/gram (kidneys, 1X dose, 12 hours): 820 dpm/gram and 764 dpm/gram and 1,561 dpm/gram | ug/gram (ppm) in organ (kidneys, 1X dose, 12 hours, 720 min): 0.062 ppm and 0.057 ppm and 0.117 ppm | 14C dpm/Organ (kidneys, 1X dose, 24 hours): 2,705 dpm/Organ and 1,481 dpm/Organ and 1,644 dpm/Organ | 14C dpm/gram (kidneys, 1X dose, 24 hours): 1,463 dpm/gram and 639 dpm/gram and 561 dpm/gram | ug/gram (ppm) in organ (kidneys, 1X dose, 24 hours, 1440 min): 0.110 ppm and 0.048 ppm and 0.042 ppm | 14C dpm/Organ (kidneys, 1X dose, 48 hours): 1,186 dpm/Organ and 863 dpm/Organ | 14C dpm/gram (kidneys, 1X dose, 48 hours): 511 dpm/gram and 527 dpm/gram | ug/gram (ppm) in organ (kidneys, 1X dose, 48 hours, 2880 min): 0.038 ppm and 0.040 ppm | 14C dpm/Organ (kidneys, 1X dose, 72 hours): 972 dpm/Organ and 759 dpm/Organ | 14C dpm/gram (kidneys, 1X dose, 72 hours): 333 dpm/gram and 289 dpm/gram | ug/gram (ppm) in organ (kidneys, 1X dose, 72 hours, 4320 min): 0.025 ppm and 0.022 ppm | 14C dpm/Organ (kidneys, 5X dose, 4 hours): 11,116 dpm/Organ and 9,227 dpm/Organ and 8.867 dpm/Organ and 12,505 dpm/Organ | 14C dpm/gram (kidneys, 5X dose, 4 hours): 9,183 dpm/gram and 4,798 dpm/gram and 4,729 dpm/gram and 6,658 dpm/gram | ug/gram (ppm) in organ (kidneys, 5X dose, 4 hours, 240 min): 0.691 ppm and 0.361 ppm and 0.356 ppm and 0.501 ppm | 14C dpm/Organ (kidneys, 5X dose, 12 hours): 11,939 dpm/Organ and 6,796 dpm/Organ and 6,537 dpm/Organ and 5,712 dpm/Organ and 7,815 dpm/Organ | 14C dpm/gram (kidneys, 5X dose, 12 hours): 5,250 dpm/gram and 3,258 dpm/gram and 3,060 dpm/gram and 2,334 dpm/gram and 3,855 dpm/gram | ug/gram (ppm) in organ (kidneys, 5X dose, 12 hours, 720 min): 0.395 ppm and 0.245 ppm and 0.230 ppm and 0.176 ppm and 0.290 ppm | 14C dpm/Organ (kidneys, 5X dose, 24 hours): 6,185 dpm/Organ and 6,443 dpm/Organ and 7,315 dpm/Organ and 3,623 dpm/Organ | 14C dpm/gram (kidneys, 5X dose, 24 hours): 3,002 dpm/gram and 2,961 dpm/gram and 3,751 dpm/gram and 1,463 dpm/gram | ug/gram (ppm) in organ (kidneys, 5X dose, 24 hours, 1440 min): 0.226 ppm and 0.223 ppm and 0.282 ppm and 0.110 ppm | 14C dpm/Organ (kidneys, 5X dose, 48 hours): 2,197 dpm/Organ and 3,750 dpm/Organ and 2,882 dpm/Organ | 14C dpm/gram (kidneys, 5X dose, 48 hours): 982 dpm/gram and 1,647 dpm/gram and 1,508 dpm/gram | ug/gram (ppm) in organ (kidneys, 5X dose, 48 hours, 2880 min): 0.074 ppm and 0.124 ppm and 0.113 ppm | 14C dpm/Organ (kidneys, 5X dose, 72 hours): 4,998 dpm/Organ and 1,843 dpm/Organ and 1,792 dpm/Organ | 14C dpm/gram (kidneys, 5X dose, 72 hours): 4,044 dpm/gram and 844 dpm/gram and 1,042 dpm/gram | ug/gram (ppm) in organ (kidneys, 5X dose, 72 hours, 4320 min): 0.304 ppm and 0.067 ppm and 0.078 ppm | 14C dpm/Organ (liver, 1X dose, 4 hours): 21,804 dpm/Organ and 36,280 dpm/Organ and 16,323 dpm/Organ | 14C dpm/gram (liver, 1X dose, 4 hours): 3,084 dpm/gram and 5,753 dpm/gram and 2,493 dpm/gram | ug/gram (ppm) in organ (liver, 1X dose, 4 hours, 240 min): 0.232 ppm and 0.433 ppm and 0.188 ppm | 14C dpm/Organ (liver, 1X dose, 12 hours): 5,477 dpm/Organ and 5,889 dpm/Organ and 19,188 dpm/Organ | 14C dpm/gram (liver, 1X dose, 12 hours): 996 dpm/gram and 927 dpm/gram and 2,857 dpm/gram | ug/gram (ppm) in organ (liver, 1X dose, 12 hours, 720 min): 0.075 ppm and 0.070 ppm and 0.215 ppm | 14C dpm/Organ (liver, 1X dose, 24 hours): 14,586 dpm/Organ and 5,165 dpm/Organ and 7,248 dpm/Organ | 14C dpm/gram (liver, 1X dose, 24 hours): 2,890 dpm/gram and 830 dpm/gram and 851 dpm/gram | ug/gram (ppm) in organ (liver, 1X dose, 24 hours, 1440 min): 0.217 ppm and 0.062 ppm and 0.064 ppm | 14C dpm/Organ (liver, 1X dose, 48 hours): 8,396 dpm/Organ and 6,073 dpm/Organ | 14C dpm/gram (liver, 1X dose, 48 hours): 1,419 dpm/gram and 1,292 dpm/gram | ug/gram (ppm) in organ (liver, 1X dose, 48 hours, 2880 min): 0.107 ppm and 0.097 ppm | 14C dpm/Organ (liver, 1X dose, 72 hours): 7,261 dpm/Organ and 3,744 dpm/Organ | 14C dpm/gram (liver, 1X dose, 72 hours): 546 dpm/gram and 361 dpm/gram | ug/gram (ppm) in organ (liver, 1X dose, 72 hours, 4320 min): 0.041 ppm and 0.027 ppm | 14C dpm/Organ (liver, 5X dose, 4 hours): 44,618 dpm/Organ and 50,607 dpm/Organ and 42,844 dpm/Organ and 46,652 dpm/Organ | 14C dpm/gram (liver, 5X dose, 4 hours): 13,878 dpm/gram and 9,859 dpm/gram and 8,038 dpm/gram and 9,651 dpm/gram | ug/gram (ppm) in organ (liver, 5X dose, 4 hours, 240 min): 1.044 ppm and 0.742 ppm and 0.605 ppm and 0.726 ppm | 14C dpm/Organ (liver, 5X dose, 12 hours): 66,438 dpm/Organ and 24,948 dpm/Organ and 17,753 dpm/Organ and 26,299 dpm/Organ and 68,033 dpm/Organ | 14C dpm/gram (liver, 5X dose, 12 hours): 11,801 dpm/gram and 4,135 dpm/gram and 3,201 dpm/gram and 3,772 dpm/gram and 10,291 dpm/gram | ug/gram (ppm) in organ (liver, 5X dose, 12 hours, 720 min): 0.888 ppm and 0.311 ppm and 0.241 ppm and 0.284 ppm and 0.774 ppm | 14C dpm/Organ (liver, 5X dose, 24 hours): 60,300 dpm/Organ and 67,384 dpm/Organ and 68,033 dpm/Organ and 20,674 dpm/Organ | 14C dpm/gram (liver, 5X dose, 24 hours): 9.588 dpm/gram and 10,942 dpm/gram and 12,714 dpm/gram and 2,845 dpm/gram | ug/gram (ppm) in organ (liver, 5X dose, 24 hours, 1440 min): 0.721 ppm and 0.823 ppm and 0.957 ppm and 0.215 ppm | 14C dpm/Organ (liver, 5X dose, 48 hours): 15,334 dpm/Organ and 27,176 dpm/Organ and 13,617 dpm/Organ | 14C dpm/gram (liver, 5X dose, 48 hours): 2,649 dpm/gram and 5,220 dpm/gram and 3,102 dpm/gram | ug/gram (ppm) in organ (liver, 5X dose, 48 hours, 2880 min): 0.199 ppm and 0.393 ppm and 0.233 ppm | 14C dpm/Organ (liver, 5X dose, 72 hours): 45,587 dpm/Organ and 10,991 dpm/Organ and 13,245 dpm/Organ | 14C dpm/gram (liver, 5X dose, 72 hours): 21,927 dpm/gram and 2,447 dpm/gram and 2,991 dpm/gram | ug/gram (ppm) in organ (liver, 5X dose, 72 hours, 4320 min): 1.650 ppm and 0.184 ppm and 0.225 ppm | Residue 72 hrs. post-dose (kidney): 0.024 ppm | Elimination Rate Constant (Ke) (kidneys, 1X dose): -0.0209 h⁻¹ | Mean tissue residue (kidneys, 1X dose (0.5 mg/kg), 4 hrs. post-dose): 0.102 ppm | Mean tissue residue (kidneys, 1X dose (0.5 mg/kg), 12 hrs. post-dose): 0.079 ppm | Mean tissue residue (kidneys, 1X dose (0.5 mg/kg), 24 hrs. post-dose): 0.067 ppm | Mean tissue residue (kidneys, 1X dose (0.5 mg/kg), 48 hrs. post-dose): 0.039 ppm | Mean tissue residue (kidneys, 1X dose (0.5 mg/kg), 72 hrs. post-dose): 0.024 ppm | Elimination Rate Constant (Ke) (kidneys, 5X dose): -0.0262 h⁻¹ | Half-Life (t1/2) (kidneys, 5X dose): 26.7 h | Mean tissue residue (kidneys, 5X dose (2.5 mg/kg), 4 hrs. post-dose): 0.477 ppm | Mean tissue residue (kidneys, 5X dose (2.5 mg/kg), 12 hrs. post-dose): 0.267 ppm | Mean tissue residue (kidneys, 5X dose (2.5 mg/kg), 24 hrs. post-dose): 0.210 ppm | Mean tissue residue (kidneys, 5X dose (2.5 mg/kg), 48 hrs. post-dose): 0.104 ppm | Mean tissue residue (kidneys, 5X dose (2.5 mg/kg), 72 hrs. post-dose, includes a sport, high value among three): 0.150 ppm | Mean tissue residue, mean of two values without the sport (kidneys, 5X dose, 72 hrs. post-dose): 0.073 ppm | Residue 72 hrs. post-dose (liver): 0.034 ppm | Mean tissue residue (liver, 1X dose (0.5 mg/kg), 4 hrs. post-dose): 0.284 ppm | Mean tissue residue (liver, 1X dose (0.5 mg/kg), 12 hrs. post-dose): 0.120 ppm | Mean tissue residue (liver, 1X dose (0.5 mg/kg), 24 hrs. post-dose): 0.114 ppm | Mean tissue residue (liver, 1X dose (0.5 mg/kg), 48 hrs. post-dose): 0.102 ppm | Mean tissue residue (liver, 1X dose (0.5 mg/kg), 72 hrs. post-dose): 0.034 ppm | Mean tissue residue (liver, 5X dose (2.5 mg/kg), 4 hrs. post-dose): 0.779 ppm | Mean tissue residue (liver, 5X dose (2.5 mg/kg), 12 hrs. post-dose): 0.500 ppm | Mean tissue residue (liver, 5X dose (2.5 mg/kg), 24 hrs. post-dose): 0.679 ppm | Mean tissue residue (liver, 5X dose (2.5 mg/kg), 48 hrs. post-dose): 0.275 ppm | Mean tissue residue (liver, 5X dose (2.5 mg/kg), 72 hrs. post-dose, includes a sport, high value among three): 0.686 ppm | Mean tissue residue, mean of two values without the sport (liver, 5X dose, 72 hrs. post-dose): 0.205 ppm | Elimination Rate Constant (Ke) (livers, 1X dose): -0.0247 h⁻¹ | Half-Life (t1/2) (livers, 1X dose): 28.0 h | Elimination Rate Constant (Ke) (livers, 5X dose): -0.0193 h⁻¹ | Half-Life (t1/2) (livers, 5X dose): 35.9 h | Residue 72 hrs. post-dose (skin/fat): 0.016 ppm | Residue 72 hrs. post-dose (thigh muscle): 0.012 ppm
